Test results as given in PMC2634962, “Poisoning Pyridoxal 5-Phosphate-Dependent Enzymes: A New Strategy to Target the Malaria Parasite Plasmodium falciparum” (PLoS ONE, 2009).

How the values were obtained:
[1] = target: T1, PfPdxK (pyridoxine/pyridoxal kinase) (Plasmodium falciparum, UniProt C6KT01); test: kinase assay with [γ-33P]-ATP, recombinant purified PfPdxK, specific activity; type: biochemical
T1 construct: gene PF3D7_0616000; recombinant, strep tag

[2] = target: T2, PfODC (bifunctional P. falciparum AdoMetDC/ODC) (Plasmodium falciparum, UniProt Q8IJ77); test: […]CO2 release from […]-L-ornithine by recombinant PfODC/AdoMetDC with […] PLP; type: biochemical; settings: read-out: Inhibition of PfODC activity IC50-value [μM] ^a)
T2 construct: gene PF3D7_1033100; recombinant bifunctional P. falciparum AdoMetDC/ODC, strep tag
T2 sequence (Q8IJ77 1-72): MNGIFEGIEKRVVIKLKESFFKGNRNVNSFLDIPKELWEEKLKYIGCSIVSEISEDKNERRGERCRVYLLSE
T2 sequence (Q8IJ77 73-1434): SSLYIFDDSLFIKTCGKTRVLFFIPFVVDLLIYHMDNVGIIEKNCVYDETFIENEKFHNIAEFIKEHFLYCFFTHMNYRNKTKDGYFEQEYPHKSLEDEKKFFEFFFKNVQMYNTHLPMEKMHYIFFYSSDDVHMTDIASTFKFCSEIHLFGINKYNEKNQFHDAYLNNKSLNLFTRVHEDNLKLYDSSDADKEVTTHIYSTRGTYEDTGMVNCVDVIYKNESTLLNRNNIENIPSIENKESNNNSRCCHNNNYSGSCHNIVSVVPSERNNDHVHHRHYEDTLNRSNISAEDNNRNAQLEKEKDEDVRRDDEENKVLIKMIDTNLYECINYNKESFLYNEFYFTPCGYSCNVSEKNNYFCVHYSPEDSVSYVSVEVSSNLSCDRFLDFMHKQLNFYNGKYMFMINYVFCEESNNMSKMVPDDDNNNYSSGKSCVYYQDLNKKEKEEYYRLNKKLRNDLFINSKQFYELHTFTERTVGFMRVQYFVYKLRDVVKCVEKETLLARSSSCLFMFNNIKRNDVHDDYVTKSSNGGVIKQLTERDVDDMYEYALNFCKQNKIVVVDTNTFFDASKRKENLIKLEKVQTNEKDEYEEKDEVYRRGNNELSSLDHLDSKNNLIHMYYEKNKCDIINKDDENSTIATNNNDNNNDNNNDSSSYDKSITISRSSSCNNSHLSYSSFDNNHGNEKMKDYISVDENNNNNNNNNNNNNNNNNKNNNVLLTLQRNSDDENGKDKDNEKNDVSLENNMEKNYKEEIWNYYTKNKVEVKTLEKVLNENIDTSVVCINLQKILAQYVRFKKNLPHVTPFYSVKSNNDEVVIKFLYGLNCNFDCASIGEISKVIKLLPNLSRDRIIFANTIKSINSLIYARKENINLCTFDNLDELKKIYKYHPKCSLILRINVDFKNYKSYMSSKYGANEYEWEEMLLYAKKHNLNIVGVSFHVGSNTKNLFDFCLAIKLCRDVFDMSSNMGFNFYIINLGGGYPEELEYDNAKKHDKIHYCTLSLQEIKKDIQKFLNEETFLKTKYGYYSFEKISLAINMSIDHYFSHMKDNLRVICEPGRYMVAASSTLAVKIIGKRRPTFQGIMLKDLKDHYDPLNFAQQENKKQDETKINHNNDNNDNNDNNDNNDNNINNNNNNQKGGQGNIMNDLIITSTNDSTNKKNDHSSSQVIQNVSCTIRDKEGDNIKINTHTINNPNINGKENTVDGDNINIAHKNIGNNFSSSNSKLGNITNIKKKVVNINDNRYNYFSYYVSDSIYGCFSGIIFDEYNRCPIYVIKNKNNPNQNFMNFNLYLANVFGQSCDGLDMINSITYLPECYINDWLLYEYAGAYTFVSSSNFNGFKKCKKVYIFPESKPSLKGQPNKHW

T1 sequence (C6KT01 entry or part of it): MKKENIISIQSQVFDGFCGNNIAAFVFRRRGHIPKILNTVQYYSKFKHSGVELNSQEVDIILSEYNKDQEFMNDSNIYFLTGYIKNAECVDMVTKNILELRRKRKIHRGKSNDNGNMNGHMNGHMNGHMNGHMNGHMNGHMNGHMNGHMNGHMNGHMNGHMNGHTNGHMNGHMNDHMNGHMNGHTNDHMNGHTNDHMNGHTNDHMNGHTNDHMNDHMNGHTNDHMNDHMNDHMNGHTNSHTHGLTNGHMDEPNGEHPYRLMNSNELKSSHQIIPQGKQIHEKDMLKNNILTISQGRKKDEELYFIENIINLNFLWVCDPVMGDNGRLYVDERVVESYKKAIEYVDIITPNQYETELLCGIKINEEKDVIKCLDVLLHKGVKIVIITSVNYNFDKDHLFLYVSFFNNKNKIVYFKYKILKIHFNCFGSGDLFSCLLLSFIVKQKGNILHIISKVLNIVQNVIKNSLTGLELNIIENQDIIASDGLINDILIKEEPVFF

IC50 [2] | SMILES | Specific activity of PfPdxK (nmol min^-1 mg^-1) ^a) [1]
– | COC(=O)C(Cc1c[nH]cn1)NCc1c(CO)cnc(C)c1O (centres unmarked) [PHME] | 64 ± 4 nmol/min/mg
58 ± 11 µM | COC(=O)C(Cc1c[nH]cn1)NCc1c(COP(=O)(O)O)cnc(C)c1O (centres unmarked) [PPHME] | –
64 ± 13 µM | COC(=O)C(Cc1c[nH]c2ccccc12)NCc1c(COP(=O)(O)O)cnc(C)c1O (centres unmarked) [PPT5] | –
– | COC(=O)[C@@H]1Cc2c([nH]c3ccccc23)[C@H](c2c(CO)cnc(C)c2O)N1 [PT3] | 38 ± 4 nmol/min/mg
– | COC(=O)C(Cc1c[nH]c2ccccc12)NCc1c(CO)cnc(C)c1O (centres unmarked) [PT5] | 20 ± 2 nmol/min/mg
